Measurements as given in publication PMC9571093, “Synthesis and Characterization of Novel Hydrazone Derivatives of Isonicotinic Hydrazide and Their Evaluation for Antibacterial and Cytotoxic Potential” (Molecules, 2022).
Values after ≈ are worked out from the molar mass of the structure shown.

Tests used:
[1] = system: Escherichia coli ATCC 10536; experiment: Paper disc diffusion, zone of inhibition; type: cell-based; conditions: ATCC10536, disc with 1000 µg mL−1 in DMSO, 37 °C, 24 h
Description: (§1) All the synthesized compounds were screened for antibacterial activities using minimum inhibitory concentrations (MIC) and zone of inhibitions against Gram (+)and Gram (−) bacterial strains. ATCC strains of the test microorganism selected for antibacterial assay were Gram-positive bacteria; Staphylococcus aureus ATCC 25923, Bacillus subtilus ATCC 11774, and Gram-negative bacteria; Escherichia coli ATCC 10536. The bacterial strains’ stock cultures were kept in Nutrient agar (Oxoid, UK) at 4 °C and inocula were prepared by transferring several single colonies of microbes to a sterile Mueller Hinton broth. The bacterial cell suspension was mixed until homogeneity to give a final density of 5 × 10^5 cfu/mL
(§2) Preliminary screenings of synthesized compounds were conducted on agar plates using the disc diffusion method. The plates were prepared using Mueller–Hinton agar following the autoclave process (121 °C for 30 min). After cooling, the plates were inoculated with the suspension of microorganisms (S. aureus, B. subtilis and E. coli). The paper discs impregnated with the test compounds (1000 µg mL^−1 in dimethyl sulfoxide) were placed on the solidified medium and incubated at 37 °C for 24 hours before recording the zone of inhibition in millimeters.

[2] = system: Bacillus subtilis ATCC 11774; experiment: Paper disc diffusion, zone of inhibition; type: cell-based; conditions: disc with 1000 µg mL−1 in DMSO, 37 °C; for zone of inhibition at 1000 µg/mL: Bacillus subtilis, ATCC11774, 24 h
Description: as §1, §2

[3] = system: Staphylococcus aureus ATCC 25923; experiment: Paper disc diffusion, zone of inhibition; type: cell-based; conditions: Staphylococcus aureus, ATCC25923, 24 h, disc with 1000 µg mL−1 in DMSO, 37 °C
Description: as §1, §2

E. coli ATCC 10536 = experiment: Tetrazolium (MTT) microplate assay of minimum inhibitory concentration; type: cell-based; conditions: Escherichia coli, ATCC10536
Description: as §1
(§3) The minimum inhibitory concentrations of test microorganisms and reference material were determined using the tetrazolium microplate assay method. The assay was performed using a 96-well clear microtiter plate. Freshly harvested bacterial cell and fungal cell suspensions were seeded at 5 × 10^5 cfu/mL in each well of the 96-well plate. Different concentrations, 500 to 10 µg/mL, of the test compounds were diluted in series with Muller–Hinton broth. A volume of 200 µL of each concentration was added in triplicate to the wells and the plates were then incubated for 18–24 h at 37 °C ± 0.5. After incubation, in each well, 50 µL of 3-(4, 5-dimethylthiazol-2-yl)-2, 5-diphenyltetrazolium bromide MTT, having a concentration of 0.2 mg/mL, was added and the plate was incubated at 37 °C for 30 min. An appropriate solvent blank (DMSO) was included as the negative control and the bacterial suspension was included as the positive control. The absorbance was measured at 570 nm with a reference wavelength of 650 nm by adding DMSO using a spectrophotometer and the percentage reduction of the dye (indicating the bacterial growth inhibition) was calculated.

S. aureus ATCC 25923 = experiment: as above; type: cell-based; conditions: Staphylococcus aureus, ATCC25923
Description: as §1, §3

B. subtilis ATCC 11774 = experiment: as above; type: cell-based; conditions: Bacillus subtilis, ATCC11774
Description: as §1, §3

[4] = Brine shrimp lethality bioassay; type: in vivo, Artemia salina; conditions: Artemia salina (brine shrimp) nauplii, in vivo, other: exposure in sea water containing the compound, 24 h incubation, regression analysis, read-out: LC50 (median lethal concentration)
Description: (§4) The cytotoxicities of synthesized hydrazones were recorded by employing an in vitro brine shrimp lethality bioassay technique. The eggs of Artemia salina (brine shrimp) were allowed to incubate at 30 °C for 48 h under a light and dark cycle using artificial sea water before subjecting them to the sample solutions. The hatched larvae (nauplii) were collected with using a Pasteur pipette and were transferred to freshly prepared sea water (commercial salt and double-distilled water). The stock solutions of each compound were prepared at 500 µg/mL concentration in DMSO and sea water at 1:1, and further serial dilutions of 25, 50, 100, 200 and 300 µg/mL were prepared using sea water. Using a 2mL volume from each dilution, sea water containing 10 nauplii was added to a test tube and incubated for 24 h. A solvent mixture with nauplii containing no test compound was used as the control. After due time, the number of nauplii that survived was determined using a magnifying glass. The experiment was performed in triplicate and the median lethal concentration (LC50) ± SEM was calculated using regression analysis.

[5] = system: Artemia salina (brine shrimp) nauplii; experiment: Brine shrimp lethality bioassay; type: in vivo; conditions: 24 h, concentration not given
Description: as §4

SMILES: CC(C)(C)OC(=O)COc1ccc(/C=N/NC(=O)c2ccncc2)cc1 [NH2, Tert-butyl (E)-2-(4-((2-Isonicotinoylhydrazineylidene)methyl)phenoxy) Acetate]
- zone of inhibition at 1000 µg/mL [1]: 14 mm
- zone of inhibition at 1000 µg/mL [2]: 14 mm
- zone of inhibition at 1000 µg/mL [3]: 15 mm
- inhibition at 100 µg/mL (E. coli ATCC 10536): 10 ± 0.3%
- inhibition at 200 µg/mL (E. coli ATCC 10536): 25 ± 0.3%
- inhibition at 300 µg/mL (E. coli ATCC 10536): 55 ± 0.5%
- inhibition at 400 µg/mL (E. coli ATCC 10536; 400 µg/mL): 70 ± 0.3%
- inhibition at 25 µg/mL (S. aureus ATCC 25923): 11 ± 1%
- inhibition at 50 µg/mL (S. aureus ATCC 25923): 21 ± 1.2%
- inhibition at 100 µg/mL (S. aureus ATCC 25923): 42 ± 2%
- inhibition at 200 µg/mL (S. aureus ATCC 25923): 50 ± 2%
- inhibition at 300 µg/mL (S. aureus ATCC 25923): 63 ± 1.5%
- inhibition at 400 µg/mL (S. aureus ATCC 25923): 74 ± 2%
- inhibition at 25 µg/mL (B. subtilis ATCC 11774): 4 ± 0.2%
- inhibition at 50 µg/mL (B. subtilis ATCC 11774): 12 ± 0.3%
- inhibition at 100 µg/mL (B. subtilis ATCC 11774): 22 ± 0.3%
- inhibition at 200 µg/mL (B. subtilis ATCC 11774): 44 ± 0.5%
- inhibition at 300 µg/mL (B. subtilis ATCC 11774): 60 ± 0.5%
- inhibition at 400 µg/mL (B. subtilis ATCC 11774): 81 ± 0.6%

SMILES: COc1cc(/C=N/NC(=O)c2ccncc2)ccc1OCC=C(C)C [NH3, (E)-N′-(3-Methoxy-4-((3-methylbut-2-en-1-yl)oxy)benzylidene)isonicotinohydrazide]
- zone of inhibition at 1000 µg/mL [1]: 33 mm
- zone of inhibition at 1000 µg/mL [2]: 23 mm
- Zone of Inhibition ([2]; 24 h): 22 mm
- zone of inhibition at 1000 µg/mL [3]: 24 mm
- inhibition at 50 µg/mL (E. coli ATCC 10536): 36 ± 0.5%
- inhibition at 100 µg/mL (E. coli ATCC 10536): 50 ± 0.5%
- inhibition at 200 µg/mL (E. coli ATCC 10536): 65 ± 0.2%
- inhibition at 300 µg/mL (E. coli ATCC 10536): 85 ± 1.2%
- inhibition at 25 µg/mL (S. aureus ATCC 25923): 24 ± 0.7%
- inhibition at 50 µg/mL (S. aureus ATCC 25923): 35 ± 1.2%
- inhibition at 100 µg/mL (S. aureus ATCC 25923): 44 ± 2%
- inhibition at 200 µg/mL (S. aureus ATCC 25923): 60 ± 1.5%
- inhibition at 300 µg/mL (S. aureus ATCC 25923): 78 ± 1%
- inhibition at 400 µg/mL (S. aureus ATCC 25923): 89 ± 1.5%
- inhibition at 25 µg/mL (B. subtilis ATCC 11774): 12 ± 0.4%
- inhibition at 50 µg/mL (B. subtilis ATCC 11774): 20 ± 0.7%
- inhibition at 100 µg/mL (B. subtilis ATCC 11774): 28 ± 0.8%
- inhibition at 200 µg/mL (B. subtilis ATCC 11774): 53 ± 0.7%
- inhibition at 300 µg/mL (B. subtilis ATCC 11774): 74 ± 0.9%
- inhibition at 400 µg/mL (B. subtilis ATCC 11774): 84 ± 0.9%
- LC50 at 24 h [4]: 240 µg/mL (≈ 707 µM)

SMILES: CC(C)=CCOc1ccc(/C=N/NC(=O)c2ccncc2)cc1 [NH4, (E)-N′-(4-((3-Methylbut-2-en-1-yl)oxy)benzylidene)isonicotinohydrazide]
- zone of inhibition at 1000 µg/mL [1]: 21 mm
- zone of inhibition at 1000 µg/mL [2]: 23 mm
- zone of inhibition at 1000 µg/mL [3]: 20 mm
- inhibition at 50 µg/mL (E. coli ATCC 10536): 5 ± 0.5%
- inhibition at 100 µg/mL (E. coli ATCC 10536): 25 ± 0.5%
- inhibition at 200 µg/mL (E. coli ATCC 10536): 54 ± 0.4%
- inhibition at 300 µg/mL (E. coli ATCC 10536): 75 ± 0.8%
- inhibition at 25 µg/mL (S. aureus ATCC 25923): 16 ± 0.5%
- inhibition at 50 µg/mL (S. aureus ATCC 25923): 24 ± 1%
- inhibition at 100 µg/mL (S. aureus ATCC 25923): 38 ± 1.5%
- inhibition at 200 µg/mL (S. aureus ATCC 25923): 55 ± 0.9%
- inhibition at 300 µg/mL (S. aureus ATCC 25923): 71 ± 2%
- inhibition at 400 µg/mL (S. aureus ATCC 25923): 89 ± 1.5%
- inhibition at 25 µg/mL (B. subtilis ATCC 11774): 10 ± 0.7%
- inhibition at 50 µg/mL (B. subtilis ATCC 11774): 18 ± 0.6%
- inhibition at 100 µg/mL (B. subtilis ATCC 11774): 29 ± 0.8%
- inhibition at 200 µg/mL (B. subtilis ATCC 11774): 50 ± 1.1%
- inhibition at 300 µg/mL (B. subtilis ATCC 11774): 68 ± 1%
- inhibition at 400 µg/mL (B. subtilis ATCC 11774): 77 ± 0.8%

SMILES: CCCOc1ccc(/C=N/NC(=O)c2ccncc2)cc1OC [NH5, (E)-N′-(3-Methoxy-4-propoxybenzylidene) isonicotinohydrazide]
- zone of inhibition at 1000 µg/mL [1]: 24 mm
- zone of inhibition at 1000 µg/mL [2]: 25 mm
- zone of inhibition at 1000 µg/mL [3]: 22 mm
- inhibition at 25 µg/mL (E. coli ATCC 10536): 10 ± 0.6%
- inhibition at 50 µg/mL (E. coli ATCC 10536): 18 ± 0.6%
- inhibition at 100 µg/mL (E. coli ATCC 10536): 34 ± 0.3%
- inhibition at 200 µg/mL (E. coli ATCC 10536): 58 ± 0.6%
- inhibition at 300 µg/mL (E. coli ATCC 10536): 79 ± 0.8%
- inhibition at 25 µg/mL (S. aureus ATCC 25923): 5 ± 0.4%
- inhibition at 50 µg/mL (S. aureus ATCC 25923): 12 ± 0.4%
- inhibition at 100 µg/mL (S. aureus ATCC 25923): 35 ± 0.7%
- inhibition at 200 µg/mL (S. aureus ATCC 25923): 58 ± 1.1%
- inhibition at 300 µg/mL (S. aureus ATCC 25923): 77 ± 1.5%
- inhibition at 50 µg/mL (B. subtilis ATCC 11774): 10 ± 0.5%
- inhibition at 100 µg/mL (B. subtilis ATCC 11774): 26 ± 0.5%
- inhibition at 200 µg/mL (B. subtilis ATCC 11774): 53 ± 0.6%
- inhibition at 300 µg/mL (B. subtilis ATCC 11774): 73 ± 0.8%
- minimum survival percentage [5]: 36.10 ± 3.45%

SMILES: CCCOc1ccc(/C=N/NC(=O)c2ccncc2)cc1 [NH6, (E)-N′-(4-Propoxybenzylidene) Isonicotinohydrazide]
- zone of inhibition at 1000 µg/mL [1]: 22 mm
- zone of inhibition at 1000 µg/mL [2]: 23 mm
- zone of inhibition at 1000 µg/mL [3]: 17 mm
- inhibition at 25 µg/mL (E. coli ATCC 10536): 5 ± 0.2%
- inhibition at 50 µg/mL (E. coli ATCC 10536): 14 ± 0.5%
- inhibition at 100 µg/mL (E. coli ATCC 10536): 28 ± 0.5%
- inhibition at 200 µg/mL (E. coli ATCC 10536): 50 ± 0.7%
- inhibition at 300 µg/mL (E. coli ATCC 10536): 73 ± 0.7%
- inhibition at 50 µg/mL (S. aureus ATCC 25923): 5.5 ± 0.5%
- inhibition at 100 µg/mL (S. aureus ATCC 25923): 25 ± 0.5%
- inhibition at 200 µg/mL (S. aureus ATCC 25923): 52 ± 1.6%
- inhibition at 300 µg/mL (S. aureus ATCC 25923): 72 ± 1.2%
- inhibition at 400 µg/mL (S. aureus ATCC 25923): 80 ± 1%
- inhibition at 50 µg/mL (B. subtilis ATCC 11774): 10 ± 0.6%
- inhibition at 100 µg/mL (B. subtilis ATCC 11774): 23 ± 0.7%
- inhibition at 200 µg/mL (B. subtilis ATCC 11774): 52 ± 0.8%
- inhibition at 300 µg/mL (B. subtilis ATCC 11774): 70 ± 1.1%
- LC50 at 24 h [4]: 162 µg/mL (≈ 574 µM)
- minimum survival percentage [5]: 32.44 ± 2.0%
